Key:
BSA = BSA (Bos taurus, UniProt P02769); assay: FRET computation, donor (BSA)–acceptor (compound); type: binding, bovine; design: kET (rate of energy transfer): unit not given here; conditions: for B (average brightness of complex–BSA system): free BSA 6573.60
Source text: The critical distance between donor and acceptor molecules can be estimated using the FRET approach to assess the binding affinity between BSA and a test substance.[13,33–35]
FRET is a non-destructive spectroscopic method consisting of a process between several electronic excited states of molecules that is dependent on distance (r). FRET can also be employed to distinguish the relative angular orientation and closeness of fluorophores.[82] The process happens when there is a large overlap between the absorption spectrum acceptor (compound/chromophore) and the donor's emission spectrum (BSA/fluorophore) (Fig. S30 ^†). Also, the average distance (r) between the donor and acceptor can be measured in accordance with this theory. Fluorescence is quenched due to energy being transmitted from the excited state of BSA to the substances (HL)/(1–3). As a result of the FRET analysis, the observed r findings were in the range of 2.4127–2.7129 nm (Table 5 and Fig. S30 ^†). […] The following conditions have a major impact on the effectiveness of FRET: (i) the distance (r) should be in the prescribed range of 2–8 nm for energy transfer; (ii) there is a large overlap between the emission spectrum of biomolecules (donors) and the electronic absorption spectrum of acceptors (substances); and (iii) the BSA and compound transition dipoles are oriented correctly. BSA transmits excitation energy to a compound during FRET without emitting a photon from the previous molecule system. Energy transfer (E) results were acquired from eqn (18) (Table 5). K^2 is associated with the geometry of the BSA and complex of the dipoles, the value for random orientation (K2 = 2/3) as in a fluid solution. Basically, the K^2 values were found in the range from 0 to 4, and energy can be transferred from BSA to the compound when electrons are transferred between the two molecules. For parallel transition dipoles that are aligned, K^2 is equal to 4, which denotes maximal energy transfer; and when the orientation of the dipoles is perpendicular to one another, K^2 is equal to 0, which denotes very weak energy transfer. When the relative orientation of the dipoles is random, K^2 is equal to 2/3. Eqn (20) is helpful for measuring the J values for overlap of the emission spectrum of BSA with the electronic absorption spectrum of the compound. The molar absorption coefficient (εA) and fluorescence emission intensity were both measured on the unit area scale of wavenumbers. It is imperative that J, after being normalized, is independent of the real size of εA. The following variables for the complex–BSA interaction are determined using eqn (18)–(23), n = 1.36, Φ = 0.15, E = 0.3462–0.5692, J = 0.8215–1.0886 × 10^−14 cm^3 L mol^−1, R0 = 2.4400–2.5573 nm, r = 2.4127–2.7129 nm, kET = 5.2941–13.2142 J s^−1 and B = 5339.79–6007.23 mol^−1 cm^−1 (Table 5). The observed values of R0 and r between BSA Trp213 and the interacting compound were substantially smaller than 8 nm and their relationships are found in the following sequence: 0.5R0 (1.2200–1.2786) < r (2.4127–2.7128) < 1.5R0 (3.6601–3.8358). […] Also, τ is denoted as the lifetime of fluorescence emission of the biomolecule and is described as the inverse of the entire degradation rate τ = 1/(kr + knr). The radiative lifetime of the fluorophore is represented as τ0 = 1/kr. The values of τ and Φ are associated with eqn (21) (Table 5). Quenching occurs when the ground or excited states of BSA come into contact with a compound in the solution. The intensity of fluorescence emission is also decreasing. Quenching is divided into the two main categories of dynamic and static quenching. While BSA is in an excited state, it binds with the substance during a dynamic or collisional quenching mechanism, and is then deactivated to the ground state without the emission of radiation. Therefore, the concentration of the quenching compounds affects dynamic quenching. The τ and Φ values for BSA diminish with an increase in the compound concentration. […]

Aspergillus niger = assay: Agar disc diffusion, strain H; type: cell-based; design: Inhibition%: concentration or dose not given beside the values; conditions: for Diameter of clear zone inhibition: control 6 mm

| Compound | E (efficiency of energy transfer) (BSA) | J (spectral overlap integral) (BSA) | R0 (Förster radius) (BSA) | kET (rate of energy transfer) (BSA) | r (donor–acceptor distance) (BSA) | B (average brightness of complex–BSA system) (BSA) | Inhibition% (Aspergillus niger) | Diameter of clear zone inhibition (Aspergillus niger) |
| --- | --- | --- | --- | --- | --- | --- | --- | --- |
| [Mn+2].[O-]c1ccccc1N=Cc1ccc(N2CCOCC2)cc1.[O-]c1ccccc1N=Cc1ccc(N2CCOCC2)cc1.c1ccc(-c2ccccn2)nc1 [(1)] | 0.4462 | 1.0886 × 10^−14 (LM^−1 cm^3) | 2.5573 nm | 8.0556 | 2.6511 nm | 6007.23 M⁻¹ cm⁻¹ | 50% | 12 mm |
| [Co+2].[O-]c1ccccc1N=Cc1ccc(N2CCOCC2)cc1.[O-]c1ccccc1N=Cc1ccc(N2CCOCC2)cc1.c1ccc(-c2ccccn2)nc1 [(2)] | 0.5000 | 1.0201 × 10^−14 (LM^−1 cm^3) | 2.5297 nm | 10.000 | 2.5297 nm | 5835.99 M⁻¹ cm⁻¹ | 50% | 12 mm |
| [Ni+2].[O-]c1ccccc1N=Cc1ccc(N2CCOCC2)cc1.[O-]c1ccccc1N=Cc1ccc(N2CCOCC2)cc1.c1ccc(-c2ccccn2)nc1 [(3)] | 0.5692 | 1.0145 × 10^−14 (LM^−1 cm^3) | 2.5274 nm | 13.2142 | 2.4127 nm | 5822.04 M⁻¹ cm⁻¹ | 50% | 12 mm |
| Oc1ccccc1N=Cc1ccc(N2CCOCC2)cc1 [(HL), 2-(4-morpholinobenzylideneamino)phenol] | 0.3462 | 0.8215 × 10^−14 (LM^−1 cm^3) | 2.4400 nm | 5.2941 | 2.7129 nm | 5339.79 M⁻¹ cm⁻¹ | 40% | 10 mm |

Reference: paper PMC10508264, “Exploring the antioxidant, antimicrobial, cytotoxic and biothermodynamic properties of novel morpholine derivative bioactive Mn(II), Co(II) and Ni(II) complexes – combined experimental and theoretical measurements towards DNA/BSA/SARS-CoV-2 3CL^Pro” (RSC Medicinal Chemistry, 2023)
